Consider three compounds from patent publication US20110104175A1, “METHODS OF TREATMENT FOR PULMONARY FIBROSIS” (CEDARS-SINAI MEDICAL CENTER, priority 2008, published 2011).

Read-outs that look alike come from different tables or passages of the source. Peptide text beside a SMILES is read from it.

Data set [1] has as its system wild-type and N-KO mice. In words: Lung histology 14 days after bleomycin. In kind it is in vivo, mouse. To be noted: bleomycin 0.5 mg/kg. The method, then: A group of 8 N-KO and 8 wild-type control mice received 0.5 mg/kg body weight of bleomycin. These animals were sacrificed 14 days later. Under deep anesthesia, the thoracic cage was opened to expose the lung. A 25 G needle was secured in the trachea and 0.8 to 1 ml of 10% buffered formalin was injected until the lungs were inflated. The trachea was then ligatured. The whole lung was carefully collected in one block with the heart and immersed in formalin overnight. The tissue was then dehydrated and paraffin embedded using standard techniques. Five micron coronal sections were obtained from the central part of the lung and were stained with either Masson's trichrome or with hematoxylin and eosin. For each animal, both right and left lobes of the lung were examined by a pathologist blinded to the genotype of the mice.

Data set [2] concerns wild-type, N-KO and C-KO mice. As to the kind of experiment: Weight loss after intratracheal instillation of bleomycin. The text has this: (§1) Preparation of Mice. We generated mice expressing site-inactivated ACE by homologous recombination. N-KO mice express a full length ACE protein where the N-terminal catalytic site was inactivated by mutating two zinc-binding histidines (^395H and ^399H) to lysines. In the C-KO strain, ^993H and ^997H, which are responsible for the zinc binding and catalytic activity of the C-terminal enzymatic site, were mutated to lysine. The generation of these two strains of mice has been described in detail prior. Both N-KO and C-KO mice are a genetic mix of strains 129 and C57BL/6. Age and gender-matched littermate controls were used in all studies. All mice used in this study have only one functional renin gene. Drug Administration. The administration of bleomycin was performed under anesthesia by intratracheal instillation as previously described. A small skin incision was made to expose the trachea. A 25-gauge needle was inserted directly into the trachea without reaching the bifurcation and the animals were maintained on the surgical board with a 30 degree angle to ensure a correct diffusion of the drug or saline to both lungs. Bleomycin was solubilized in water, aliquoted, lyophilized and kept at −20 C. For each experiment a fresh aliquot was dissolved in saline and, unless otherwise indicated, administered in a dose of 1 mg/kg. The concentration of the solution was adapted to inject 2 μl/g, The skin was then sutured and the animal monitored until complete recovery.
Weight loss is a typical feature secondary to bleomycin administration and is associated with the severity of the pulmonary lesions.

The subject of data set [3] is wild-type, N-KO and C-KO mice.
Text: as §1
(§2) Absorbance was measured at 550 nm.

Data set [4] deals with wild-type and N-KO mice. To be noted: for cell content of the bronchoalveolar lavage: intratracheal bleomycin without S17092, two weeks.
Text: as §1, §2

Another data set deals with patients. To be noted: cited from earlier work.
Data set [5] relates to wild-type and N-KO mice. In words: Survival analysis after intratracheal bleomycin.
Text: as §1, §2

A further data set deals with rats. The settings on record: model of heart infarction; cited from earlier work.
The subject of data set [6] is ACE N-domain and C-terminal domain. The settings on record: N-domain versus C-terminal domain; cited from earlier work.
For data set [7] the following is noted: cited from earlier work.
The conditions of data set [8]: mouse; cited from earlier work.

In the case of bleomycin, the “lung histology (inflammation, collagen stripes) versus wild-type” value with wild-type and N-KO mice [1] (N-KO mice) was “much reduced”. The lung histology entry in the data set with wild-type and N-KO mice [1] (wild-type mice) is “extensive lung injury”. For the same compound, the “weight loss, C-KO mice versus wild-type controls” value in data set [2] (C-KO mice) is “no significant difference in weight loss”. The weight loss was 1.60±1.23% in data set [2] (N-KO mice) and 9.26±2.52% in data set [2] (wild-type animals). Moreover, in data set [3] (N-KO mice, two weeks after intratracheal bleomycin), the “pulmonary collagen levels (hydroxyproline)” value is recorded as “did not increase pulmonary collagen levels”. The “hydroxyproline content of lungs” value in data set [3] (wild-type and C-KO mice, two weeks after intratracheal bleomycin) was “significantly increased the hydroxyproline content”. The “cell content of the bronchoalveolar lavage” value was 12.73±1.58 10^5 cells per lung with wild-type and N-KO mice [4] (N-KO mice); 24.21±3.10 10^5 cells per lung with wild-type and N-KO mice [4] (wild-type mice). Further, in the data set with patients (of the patients who develop lung injury), the “patients with lung injury who die of lung injury” value is listed as 1-3%. For the same compound, the “patients developing sufficient lung injury to necessitate cessation of treatment” value with patients (patients treated with bleomycin, meta-analysis) was 10 to 50%. Further, the long-term survival with wild-type and N-KO mice [5] (N-KO mice, bleomycin 5 mg/kg body weight intratracheal) is 4 of 15. For the same compound, the “mice surviving 12 days after drug administration” value in the data set on wild-type and N-KO mice [5] (wild-type mice, bleomycin 5 mg/kg body weight intratracheal) is 1 of 15. The deaths result with wild-type and N-KO mice [5] (wild-type or N-KO mice, bleomycin 1 mg/kg body weight intratracheal) is “virtually no deaths”.

With `CC(=O)N[C@@H](CO)C(=O)N[C@@H](CC(=O)O)C(=O)N[C@@H](CCCCN)C(=O)N1CCC[C@H]1C(=O)O` [AcSDKP, N-acetyl-seryl-aspartyl-lysyl-proline] (Ac-SDKP-OH), the collagen deposition entry in the data set with rats was “prevented and even reversed collagen deposition”. Also, the “collagen deposition, as assessed by hydroxyproline” value in [3] (wild-type mice, AcSDKP 1 mg/kg/day by osmotic minipump, bleomycin) is “did not significantly reduce the collagen deposition”. The lavage cellularity entry with wild-type and N-KO mice [4] (wild-type mice, AcSDKP 1 mg/kg/day by osmotic minipump, bleomycin on day 2, two weeks later, versus saline-filled minipump) was “substantially reduced lavage cellularity”.

As to “Ac-Asp-(L)Pheψ(PO2—CH2)(L)Ala-Ala-NH2 (Ac-DFAA-NH2; also: Phe2-Ala3 peptide bond replaced by phosphinic ψ(PO2-CH2) bond) [RXP 407]”, the “dissociation constant for the ACE N-domain relative to the C-terminal domain” value in data set [6] is reported as “three orders of magnitude lower”. For the same compound, the “elevation of plasma Ac-SDKP” value in [7] (RXP 407 combined with Ac-SDKP infusion) is listed as 16 fold. Moreover, the “increase of plasma level of Ac-SDKP” value in [7] (mouse, RXP 407 alone) was no more than 6 fold. Moreover, the stability in vivo entry in data set [8] is recorded as “stable in vivo”.
